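GI50 is the concentration that inhibits growth by half. TGI is the concentration that stops growth completely.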
Tests used:
Assay in all cases: NCI-60 cell line screen, 384-well format
786-0 renal = test system: 786-0 renal
A498 renal = test system: A498 renal
A549 NSCLC = test system: A549 NSCLC
ACHN renal = test system: ACHN renal
BT-549 breast = test system: BT-549 breast
CAKI-1 renal = test system: CAKI-1 renal
CCRF-CEM leukemia = test system: CCRF-CEM leukemia
COLO 205 colon = test system: COLO 205 colon
DU-145 prostate = test system: DU-145 prostate
EKVX NSCLC = test system: EKVX NSCLC
HCC-2998 colon = test system: HCC-2998 colon
HCT-116 colon = test system: HCT-116 colon
HCT-15 colon = test system: HCT-15 colon
HL-60(TB) leukemia = test system: HL-60(TB) leukemia
HOP-62 NSCLC = test system: HOP-62 NSCLC
HOP-92 NSCLC = test system: HOP-92 NSCLC
HS 578T breast = test system: HS 578T breast
HT29 colon = test system: HT29 colon
IGROV1 ovarian = test system: IGROV1 ovarian
K-562 leukemia = test system: K-562 leukemia
KM12 colon = test system: KM12 colon
LOX IMVI melanoma = test system: LOX IMVI melanoma
M14 melanoma = test system: M14 melanoma
MALME-3M melanoma = test system: MALME-3M melanoma
MCF7 breast = test system: MCF7 breast
MDA-MB-231 breast = test system: MDA-MB-231 breast
MDA-MB-435 melanoma = test system: MDA-MB-435 melanoma
MDA-MB-468 breast = test system: MDA-MB-468 breast
MOLT-4 leukemia = test system: MOLT-4 leukemia
NCI-H226 lung = test system: NCI-H226 lung
NCI-H23 lung = test system: NCI-H23 lung
NCI-H322M lung = test system: NCI-H322M lung
NCI-H460 NSCLC = test system: NCI-H460 NSCLC
NCI-H522 lung = test system: NCI-H522 lung
NCI/ADR-RES ovarian = test system: NCI/ADR-RES ovarian
OVCAR-3 ovarian = test system: OVCAR-3 ovarian
OVCAR-4 ovarian = test system: OVCAR-4 ovarian
OVCAR-8 ovarian = test system: OVCAR-8 ovarian
PC-3 prostate = test system: PC-3 prostate
RPMI-8226 leukemia = test system: RPMI-8226 leukemia
RXF 393 renal = test system: RXF 393 renal
SF-268 CNS = test system: SF-268 CNS
SF-295 CNS = test system: SF-295 CNS
SF-539 CNS = test system: SF-539 CNS
SK-MEL-28 melanoma = test system: SK-MEL-28 melanoma
SK-MEL-5 melanoma = test system: SK-MEL-5 melanoma
SK-OV-3 ovarian = test system: SK-OV-3 ovarian
SN12C renal = test system: SN12C renal
SNB-19 CNS = test system: SNB-19 CNS
SNB-75 CNS = test system: SNB-75 CNS
SR leukemia = test system: SR leukemia
SW-620 colon = test system: SW-620 colon
T-47D breast = test system: T-47D breast
TK-10 renal = test system: TK-10 renal
U251 glioblastoma = test system: U251 glioblastoma
UACC-257 melanoma = test system: UACC-257 melanoma
UACC-62 melanoma = test system: UACC-62 melanoma
UO-31 renal = test system: UO-31 renal

Question: Which GI50 ([…]-0 renal) does the source give for COc1cc2ncnc(Nc3cccc(Cl)c3F)c2cc1OC(=O)N1CCN(C)C[C@H]1C here?
Answer: 14.4 µM

Question: What about the TGI (786-0 renal) of the same molecule?
Answer: 29 µM

Question: What about the GI50 (A498 renal) of the same molecule?
Answer: 17 µM

Question: And the TGI (A498 renal)?
Answer: 42.5 µM

Question: And the GI50 (A549 NSCLC)?
Answer: 12.3 µM

Question: What about the TGI (A549 NSCLC) of the same molecule?
Answer: 43.1 µM

Question: And the GI50 (ACHN renal)?
Answer: 0.427 µM

Question: What about the TGI (ACHN renal) of the same molecule?
Answer: 20.7 µM

Question: What about the GI50 (BT-549 breast) of the same molecule?
Answer: 20.3 µM

Question: What about the TGI (BT-549 breast) of the same molecule?
Answer: 46.5 µM

Question: What about the GI50 (CAKI-1 renal) of the same molecule?
Answer: 2.3 µM

Question: What about the TGI (CAKI-1 renal) of the same molecule?
Answer: 20.4 µM

Question: And the GI50 (CCRF-CEM leukemia)?
Answer: 20.1 µM

Question: What about the TGI (CCRF-CEM leukemia) of the same molecule?
Answer: 49.2 µM

Question: And the GI50 (COLO 205 colon)?
Answer: 22.4 µM

Question: And the TGI (COLO 205 colon)?
Answer: 54 µM

Question: And the GI50 (DU-145 prostate)?
Answer: 13.5 µM

Question: What about the TGI (DU-145 prostate) of the same molecule?
Answer: 58.2 µM

Question: And the GI50 (EKVX NSCLC)?
Answer: 0.304 µM

Question: What about the TGI (EKVX NSCLC) of the same molecule?
Answer: 16.7 µM

Question: What about the GI50 (HCC-2998 colon) of the same molecule?
Answer: 17.3 µM

Question: What about the TGI (HCC-2998 colon) of the same molecule?
Answer: 32.4 µM

Question: And the GI50 (HCT-116 colon)?
Answer: 16.9 µM

Question: What about the TGI (HCT-116 colon) of the same molecule?
Answer: 32.8 µM

Question: What about the GI50 (HCT-15 colon) of the same molecule?
Answer: 13.9 µM

Question: What about the TGI (HCT-15 colon) of the same molecule?
Answer: 29.2 µM

Question: And the GI50 (HL-60(TB) leukemia)?
Answer: 16.5 µM

Question: And the TGI (HL-60(TB) leukemia)?
Answer: 30.2 µM

Question: What about the GI50 (HOP-62 NSCLC) of the same molecule?
Answer: 17.6 µM

Question: What about the TGI (HOP-62 NSCLC) of the same molecule?
Answer: 42 µM

Question: What about the GI50 (HOP-92 NSCLC) of the same molecule?
Answer: 13.4 µM

Question: And the TGI (HOP-92 NSCLC)?
Answer: 28.5 µM

Question: What about the GI50 (HS 578T breast) of the same molecule?
Answer: 15.2 µM

Question: And the TGI (HS 578T breast)?
Answer: 29.6 µM

Question: And the GI50 (HT29 colon)?
Answer: 14.4 µM

Question: And the TGI (HT29 colon)?
Answer: 31.2 µM

Question: What about the GI50 (IGROV1 ovarian) of the same molecule?
Answer: 0.241 µM

Question: And the TGI (IGROV1 ovarian)?
Answer: 11.9 µM

Question: And the GI50 (K-562 leukemia)?
Answer: 5.49 µM

Question: And the TGI (K-562 leukemia)?
Answer: 17.8 µM

Question: And the GI50 (KM12 colon)?
Answer: 20.1 µM

Question: And the TGI (KM12 colon)?
Answer: 41.4 µM

Question: And the GI50 (LOX IMVI melanoma)?
Answer: 16.3 µM

Question: And the TGI (LOX IMVI melanoma)?
Answer: 30.5 µM

Question: And the GI50 (M14 melanoma)?
Answer: 16.4 µM

Question: And the TGI (M14 melanoma)?
Answer: 30.7 µM

Question: And the GI50 (MALME-3M melanoma)?
Answer: 15.1 µM

Question: What about the TGI (MALME-3M melanoma) of the same molecule?
Answer: 28.8 µM

Question: And the GI50 (MCF7 breast)?
Answer: 19.8 µM

Question: And the TGI (MCF7 breast)?
Answer: 87.4 µM

Question: And the GI50 (MDA-MB-231 breast)?
Answer: 14.7 µM

Question: What about the TGI (MDA-MB-231 breast) of the same molecule?
Answer: 38.4 µM

Question: And the GI50 (MDA-MB-435 melanoma)?
Answer: 22.6 µM

Question: And the TGI (MDA-MB-435 melanoma)?
Answer: 55.8 µM

Question: And the GI50 (MDA-MB-468 breast)?
Answer: 0.128 µM

Question: And the TGI (MDA-MB-468 breast)?
Answer: 0.446 µM

Question: What about the GI50 (MOLT-4 leukemia) of the same molecule?
Answer: 14.2 µM

Question: What about the TGI (MOLT-4 leukemia) of the same molecule?
Answer: 28.1 µM

Question: What about the GI50 (NCI-H226 lung) of the same molecule?
Answer: 11.7 µM

Question: What about the TGI (NCI-H226 lung) of the same molecule?
Answer: 33.8 µM

Question: What about the GI50 (NCI-H23 lung) of the same molecule?
Answer: 16.4 µM

Question: And the TGI (NCI-H23 lung)?
Answer: 41.7 µM

Question: What about the GI50 (NCI-H322M lung) of the same molecule?
Answer: 0.144 µM

Question: And the TGI (NCI-H322M lung)?
Answer: 10.8 µM

Question: And the GI50 (NCI-H460 NSCLC)?
Answer: 19.9 µM

Question: What about the TGI (NCI-H460 NSCLC) of the same molecule?
Answer: 44.2 µM

Question: And the GI50 (NCI-H522 lung)?
Answer: 0.851 µM

Question: And the TGI (NCI-H522 lung)?
Answer: 17.5 µM

Question: And the GI50 (NCI/ADR-RES ovarian)?
Answer: 18 µM

Question: And the TGI (NCI/ADR-RES ovarian)?
Answer: 64.2 µM

Question: What about the GI50 (OVCAR-3 ovarian) of the same molecule?
Answer: 4.35 µM

Question: And the TGI (OVCAR-3 ovarian)?
Answer: 24.3 µM

Question: And the GI50 (OVCAR-4 ovarian)?
Answer: 18.5 µM

Question: What about the TGI (OVCAR-4 ovarian) of the same molecule?
Answer: 51.5 µM

Question: What about the GI50 (OVCAR-8 ovarian) of the same molecule?
Answer: 15.3 µM

Question: What about the TGI (OVCAR-8 ovarian) of the same molecule?
Answer: 49.2 µM

Question: And the GI50 (PC-3 prostate)?
Answer: 15.6 µM

Question: What about the TGI (PC-3 prostate) of the same molecule?
Answer: 49.8 µM

Question: And the GI50 (RPMI-8226 leukemia)?
Answer: 14.6 µM

Question: What about the TGI (RPMI-8226 leukemia) of the same molecule?
Answer: 30.9 µM

Question: What about the GI50 (RXF 393 renal) of the same molecule?
Answer: 14.1 µM

Question: What about the TGI (RXF 393 renal) of the same molecule?
Answer: 29.2 µM

Question: What about the GI50 (SF-268 CNS) of the same molecule?
Answer: 18.8 µM

Question: And the TGI (SF-268 CNS)?
Answer: 54 µM

Question: And the GI50 (SF-295 CNS)?
Answer: 16.3 µM

Question: And the TGI (SF-295 CNS)?
Answer: 31.4 µM

Question: And the GI50 (SF-539 CNS)?
Answer: 16.7 µM

Question: What about the TGI (SF-539 CNS) of the same molecule?
Answer: 32.5 µM

Question: And the GI50 (SK-MEL-28 melanoma)?
Answer: 14.6 µM

Question: What about the TGI (SK-MEL-28 melanoma) of the same molecule?
Answer: 28 µM

Question: And the GI50 (SK-MEL-5 melanoma)?
Answer: 11.5 µM

Question: And the TGI (SK-MEL-5 melanoma)?
Answer: 24.9 µM

Question: And the GI50 (SK-OV-3 ovarian)?
Answer: 3.46 µM

Question: What about the TGI (SK-OV-3 ovarian) of the same molecule?
Answer: 22.7 µM

Question: What about the GI50 (SN12C renal) of the same molecule?
Answer: 2.69 µM

Question: And the TGI (SN12C renal)?
Answer: 27.6 µM

Question: And the GI50 (SNB-19 CNS)?
Answer: 27.7 µM

Question: And the TGI (SNB-19 CNS)?
Answer: > 100 µM

Question: And the GI50 (SNB-75 CNS)?
Answer: 17.6 µM

Question: And the TGI (SNB-75 CNS)?
Answer: 47.1 µM

Question: And the GI50 (SR leukemia)?
Answer: 10.8 µM

Question: What about the TGI (SR leukemia) of the same molecule?
Answer: 23.6 µM

Question: What about the GI50 (SW-620 colon) of the same molecule?
Answer: 20.3 µM

Question: And the TGI (SW-620 colon)?
Answer: 38.2 µM

Question: And the GI50 (T-47D breast)?
Answer: 9.89 µM

Question: What about the TGI (T-47D breast) of the same molecule?
Answer: 40.9 µM

Question: What about the GI50 (TK-10 renal) of the same molecule?
Answer: 0.573 µM

Question: What about the TGI (TK-10 renal) of the same molecule?
Answer: 21.3 µM

Question: What about the GI50 (U251 glioblastoma) of the same molecule?
Answer: 20.2 µM

Question: And the TGI (U251 glioblastoma)?
Answer: 48 µM

Question: What about the GI50 (UACC-257 melanoma) of the same molecule?
Answer: 17.5 µM

Question: What about the TGI (UACC-257 melanoma) of the same molecule?
Answer: 31.5 µM

Question: And the GI50 (UACC-62 melanoma)?
Answer: 14.2 µM

Question: And the TGI (UACC-62 melanoma)?
Answer: 28.1 µM

Question: And the GI50 (UO-31 renal)?
Answer: 6.94 µM

Question: What about the TGI (UO-31 renal) of the same molecule?
Answer: 27.9 µM
